Assay results as given in patent publication US20070099876A1, “Target directed chemotherapy of tumours of the sexual organs” (priority 2003, published 2007).

Tested on: mammary carcinoma of the rat
Assay: mammary tumours induced by benzidine in female Wistar rats
Type: in vivo
Settings: low dosage
Excerpt: For the development of active agents against tumours of the human sexual organs, an animal model closely similar to human tumours is needed, so that truly significant test results can be accomplished. The known “Huggins tumours” (C. Huggins et al., Rapid induction of mammary carcinoma in the rat and the influence of hormones, J. Exper. Med. 109, 25 (1959)) can be generated and combated easily, e.g. by endocrine manipulations and the usual chemotherapy (e.g. with endoxan®=cyclophosphamide monohydrate). In contrast, the tumours generated by benzidine in female Wistar rats require more time for induction and are (like human mammary tumour) only up to about 50% hormone dependent; they (like human mammary tumour) cannot be influenced effectively by chemotherapeutics and other methods of treatment in the art. Therefore, we have found the desired suitable animal model in Wistar rats with mammary tumours induced by benzidine.
20 female Wistar rats are treated with benzidine. The first benzidine dose is 150 mg/kg; then the doses are reduced to weekly 100 mg/kg. Then doses per 75 mg/kg follow within a gap of 14 days. There from a total dose of 1.225 g/kg results.
In total 29 mammary carcinomas are generated. […]
After the first tumour is generated (about 0.5 g) the benzidine application is stopped. […] The tumour size is determined tactually; experienced experimenters can determine it precisely to 0.1 g. […]

CN(C)/N=N/c1ccc2c(c1)CCC1C2CCC2(C)C(=O)CCC12 (stereo not shown) [Example 11, 3-(1,1-dimethyltriazenyl)-estrone]
effect against mammary carcinoma of the rat: very good effect at low dosage
